The values that follow come from patent publication US11491132B2, “Methods for treating thrombocytopenia” (Enzychem Lifesciences Corporation, priority 2014, dated 2022).

Assay [1] deals with C3. Description: C3 inhibition by PLAG in HMC-1, ELISA. Conditions: HMC-1 cells, PLAG 1, 10 and 100 μg/mL for 2 hours, activated 72 hours. Format: cell-based, human. The method, then: In a separate experiment, human mast cells (HMC-1, 1×10^5 cell/ml) are treated with PLAG of various concentrations (1, 10 and 100 μg/mL) for 2 hours. The cells are activated for 72 hours with 10% FBS (Fetal bovine serum) containing IMDM. The decrease of C3 is confirmed by ELISA analysis of the expressed protein.

The test system of assay [2] is C3. Description: C3 expression in HepG2 cell line, RT-PCR of mRNA. Conditions: HepG2 cells, 2 hours. Format: cell-based, human. The method, then: A liver cell line, HepG2 (American Type Culture Collection, ATCC, Rockville, Md.), is incubated and maintained at 37° C., 5% CO2 humid atmosphere in DMEM medium. When HepG2 cells, which are known to produce complement in culture, are treated with PLAG, the activity of complement is reduced effectively, as confirmed by RT-PCR of mRNA. In the RT-PCR, 5×10^5 number of HepG2 cells/ml are distributed into 12 well plates and induced C3 for 12 hours with 10% FCS. Then PLAG is added and further cultured for 2 hours. Cells are harvested and mRNA is isolated and RT-PCR is carried out with specific primer of C3; GAPDH is used as an internal control.

In assay [3] the test system is splenic nodules, primitive progenitor cells and megakaryocytes. Description: Colony forming units in spleen (CFUs) assay in heavily irradiated mice. Format: in vivo. To be noted: PLAG 50 mg/kg/d i.p. or p.o. The method, then: In order to determine the in vivo effect of PLAG on the recovery of hematopoiesis, a CFUs assay is performed in heavily irradiated mice.
Assay [4] relates to hematopoietic stem cells and megakaryocytes. To be noted: reported in WO 99/26640; cited from earlier work.
A further assay concerns the target T1, STAT1 (Homo sapiens, UniProt P42224).
T1 sequence (P42224 1-750): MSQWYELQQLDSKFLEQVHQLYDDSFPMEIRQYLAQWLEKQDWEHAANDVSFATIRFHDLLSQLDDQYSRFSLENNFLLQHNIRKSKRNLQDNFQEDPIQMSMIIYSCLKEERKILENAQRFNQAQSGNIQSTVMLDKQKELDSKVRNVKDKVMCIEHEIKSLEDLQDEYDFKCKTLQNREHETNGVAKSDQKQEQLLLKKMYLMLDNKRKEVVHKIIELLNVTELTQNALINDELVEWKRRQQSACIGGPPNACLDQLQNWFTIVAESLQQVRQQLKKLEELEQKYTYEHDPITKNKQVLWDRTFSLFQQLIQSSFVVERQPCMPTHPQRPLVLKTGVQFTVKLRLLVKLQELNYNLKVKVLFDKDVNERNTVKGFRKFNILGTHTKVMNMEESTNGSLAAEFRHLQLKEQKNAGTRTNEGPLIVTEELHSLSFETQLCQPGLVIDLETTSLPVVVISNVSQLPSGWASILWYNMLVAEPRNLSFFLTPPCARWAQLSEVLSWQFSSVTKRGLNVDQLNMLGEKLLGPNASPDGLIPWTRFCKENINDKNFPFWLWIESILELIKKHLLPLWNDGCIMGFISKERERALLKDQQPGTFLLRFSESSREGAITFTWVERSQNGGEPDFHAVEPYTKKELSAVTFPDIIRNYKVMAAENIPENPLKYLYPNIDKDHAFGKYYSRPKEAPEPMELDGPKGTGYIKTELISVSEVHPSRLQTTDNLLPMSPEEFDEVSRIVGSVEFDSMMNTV
Put plainly: Reporter assay for STAT1 transcriptional activity in HepG2 cells. Format: cell-based. More on the design: For the STAT1 assay, gene transfected HepG2 (human hepatocyte cell line) is treated with 10 ng of IFN-γ; endogenous in cells; host or cells: HepG2 (gene transfected). To be noted: gene transfected HepG2, 10 ng IFN-γ, PLAG 0.01-10 μg/ml, 12 hours incubation. On the procedure:
By using STAT6 inhibitor (S6I), it is confirmed that the reduction of Complement 3 in HepG2 cells (human hepatocyte cell line) is regulated by STAT6. […] It is also confirmed that PLAG has selective efficacy on STAT6 over STAT1. FIG. 1 presents graphs showing STAT1 and STAT6 transcriptional activity in the PLAG treated HepG2 cells. NC refers to the unstimulated control cell. For the STAT1 assay, gene transfected HepG2 (human hepatocyte cell line) is treated with 10 ng of IFN-γ and serially diluted PLAG is added (0.01 μg/ml, 0.1 μg/ml, 1 μg/ml, and 10 μg/ml as shown) to see its effect on gene expression in the stimulated cell. For the STAT6 assay, gene transfected HepG2 cells are treated with 10 ng of IL-4 and again serially diluted PLAG is added (0.01 μg/ml, 0.1 μg/ml, 1 μg/ml, and 10 μg/ml as shown) to see its effect on gene expression in the stimulated cell. The assay is carried out following 12 hours incubation of treated cells.
(A reporter such as luciferase makes a cellular process visible.)

Regarding `CCCCC/C=C\C/C=C\CCCCCCCC(=O)OC(COC(C)=O)COC(=O)CCCCCCCCCCCCCCC` (racemic) [PLAG, 1-palmitoyl-2-linoleoyl-3-acetylglycerol], in the assay with C3 [1], the “decrease of C3 (expressed protein, ELISA)” value was “proportional to the concentration of PLAG”. Further, the results for the “inhibition of C3 expression (RT-PCR)” value with C3 [2] (PLAG 1 microgram/ml) and in the assay with C3 [2] (PLAG 10 microgram/ml) were “somewhat” and “entirely”, respectively. Also, the “number of splenic nodules and numbers of primitive progenitor cells and megakaryocytes” value in assay [3] is given as “marked increase”. Besides, in assay [4], the “growth-stimulating activities of hematopoietic stem cells and megakaryocytes” value is listed as “growth-stimulating activities”. In addition, on STAT1, the “STAT1 expression (transcriptional activity, reporter)” value is given as “no effect”.
